Assay results as given in patent US20100256177A1, “Flavopereirine derivatives for cancer therapy” (priority 2004, published 2010).
Converted amounts (≈) assume the structure as drawn.

Columns and labels:
Type in all cases: cell-based
[1] = system: L132 (lung) human tumor cell line; test: three day MTT cytotoxicity assay, L132 lung; settings: L132 lung cells, 72 hours
Experimental: (§1) A number of the Flavopereirine derivatives were tested for cytotoxicity against nine (9) human tumor cell lines. Briefly, a three day MTT cytotoxicity assay was performed, which is based on the principle of uptake of MTT (3-(4,5-dimethylthiazol-2-yl)-2,5-diphenyl tetrazolium bromide), a tetrazolium salt, by the metabolically active cells where it is metabolized by active mitochondria into a blue colored formazan product that is read spectrophotometrically. MIT was dissolved in phosphate buffered saline with a pH of 7.4 to obtain an MTT concentration of 5 mg/ml; the resulting mixture was filtered through a 0.22-micron filter to sterilize and remove a small amount of insoluble residue. For each type of tumor cell, 10000 to 15000 cells were seeded in a 96-well culture plate and incubated with the individual Flavopereirine derivatives in concentration ranging from 1-20 μg/ml in a CO2 incubator for a total of 72 hours. Control cells not treated with the Flavopereirine derivatives were similarly incubated. The assay was terminated by adding 100 μg (20 μl) of MTT to each well, then incubating for additional one hour, and finally adding 50 μl of 10% SDS-0.01N HCl to each well to lyse the cells and dissolve formazan. After incubating for one hour, the plate was read spectrophotometrically at 540 nm and the percentage of cytotoxicity calculated using the following formula:
(§2) Cytotoxicity percentage=100×[1-(X/R1)], where X=(absorbance of treated sample at 540 nm)−(absorbance of blank at 540 nm) R1=absorbance of control sample at 540 nm.
(§3) The IC50 Values of the cytotoxicity defined as the concentration at which 50% of the cells are killed in vitro was calculated for each cell line treated with each of the Flavopereirine derivatives.
(§4) The cell lines are ovary (PA-1), breast (MCF-7), prostate (DU145), pancreas (MiaPaCa.2), oral cavity (KB), lung (L132), colon (SW620), and larynx (HeP2).

[2] = system: KB (oral cavity) human tumor cell line; test: three day MTT cytotoxicity assay, KB oral; settings: KB oral cells, 72 hours
Experimental: as §1, §2, §3, §4

[3] = system: MCF7 (breast) human tumor cell line; test: three day MTT cytotoxicity assay, MCF7 breast; settings: MCF7 breast cells, 72 hours
Experimental: as §1, §2, §3, §4

[4] = system: Hep2 (larynx) human tumor cell line; test: three day MTT cytotoxicity assay, Hep2 larynx; settings: 72 hours; for IC50 (μg/mL) of Flavoperereine derivatives in human tumor cell lines, Hep2 Larynx: Hep2 larynx cells
Experimental: as §1, §2, §3, §4

[5] = system: SW620 (colon) human tumor cell line; test: three day MTT cytotoxicity assay, SW620 colon; settings: 72 hours; for IC50 (μg/mL) of Flavoperereine derivatives in human tumor cell lines, SW620 Colon: SW620 colon cells
Experimental: as §1, §2, §3, §4

[6] = system: MiaPaca2 (pancreas) human tumor cell line; test: three day MTT cytotoxicity assay, MiaPaca2 pancreas; settings: 72 hours; for IC50 (μg/mL) of Flavoperereine derivatives in human tumor cell lines, MiaPaca2 Pancreas: MiaPaca2 pancreas cells
Experimental: as §1, §2, §3, §4

[7] = system: PA1 (ovary) human tumor cell line; test: three day MTT cytotoxicity assay, PA1 ovarian; settings: PA1 ovarian cells, 72 hours
Experimental: as §1, §2, §3, §4

[8] = system: DU145 (prostate) human tumor cell line; test: three day MTT cytotoxicity assay, DU145 prostate; settings: 72 hours; for IC50 (μg/mL) of Flavoperereine derivatives in human tumor cell lines, DU145 Prostate: DU145 prostate cells
Experimental: as §1, §2, §3, §4

[9] = system: ECV-304 (endothelial) cell line; test: three day MTT cytotoxicity assay, ECV-304 endothelial; settings: ECV-304 endothelial cells, 72 hours
Experimental: as §1, §2, §3

Structure (SMILES)	IC50 (μg/mL) of Flavoperereine derivatives in human tumor cell lines, L132 Lung [1]	IC50 (μg/mL) of Flavoperereine derivatives in human tumor cell lines, KB Oral [2]	IC50 (μg/mL) of Flavoperereine derivatives in human tumor cell lines, MCF7 Breast [3]	IC50 (μg/mL) of Flavoperereine derivatives in human tumor cell lines, Hep2 Larynx [4]	IC50 (μg/mL) of Flavoperereine derivatives in human tumor cell lines, SW620 Colon [5]	IC50 (μg/mL) of Flavoperereine derivatives in human tumor cell lines, MiaPaca2 Pancreas [6]	IC50 (μg/mL) of Flavoperereine derivatives in human tumor cell lines, PA1 Ovarian [7]	IC50 (μg/mL) of Flavoperereine derivatives in human tumor cell lines, DU145 Prostate [8]	IC50 ([1]; Homo sapiens, read-out: IC50 (μg/mL) of Flavoperereine derivatives in human tumor cell lines, L132 Lung)	IC50 ([2]; Homo sapiens, read-out: IC50 (μg/mL) of Flavoperereine derivatives in human tumor cell lines, KB Oral)	IC50 ([3]; Homo sapiens, read-out: IC50 (μg/mL) of Flavoperereine derivatives in human tumor cell lines, MCF7 Breast)	IC50 ([4]; Homo sapiens, HEp-2, Hep2 larynx cells, read-out: IC50 (μg/mL) of Flavoperereine derivatives in human tumor cell lines, Hep2 Larynx)	IC50 ([5]; Homo sapiens, SW-620, SW620 colon cells, read-out: IC50 (μg/mL) of Flavoperereine derivatives in human tumor cell lines, SW620 Colon)	IC50 ([6]; Homo sapiens, MIA PaCa-2, MiaPaca2 pancreas cells, read-out: IC50 (μg/mL) of Flavoperereine derivatives in human tumor cell lines, MiaPaca2 Pancreas)	IC50 ([7]; Homo sapiens, read-out: IC50 (μg/mL) of Flavoperereine derivatives in human tumor cell lines, PA1 Ovarian)	IC50 ([8]; Homo sapiens, DU-145, DU145 prostate cells, read-out: IC50 (μg/mL) of Flavoperereine derivatives in human tumor cell lines, DU145 Prostate)	IC50 ([9]; Homo sapiens, read-out: IC50 (μg/mL) of Flavoperereine derivatives in human tumor cell lines, ECV-304 Endothelial)	IC50 (μg/mL) of Flavoperereine derivatives in human tumor cell lines, ECV-304 Endothelial [9]
Oc1ccc2[n+](c1)CCc1c-2[nH]c2ccccc12 [Compound 22, 3-hydroxy-6,7-dihydroindolo[2,3-a]quinolizinium]	>100 µg/mL	>100 µg/mL	>100 µg/mL	>100 µg/mL	>100 µg/mL	>100 µg/mL	>100 µg/mL	>100 µg/mL										
C1=CC2=C3N=c4ccccc4=C3CCN2C=C1OCc1ccccc1 [Compound 23, 3-benzyloxy-6,7-dihydroindolo[2,3-a]quinolizine]									20 µg/mL (≈ 61.3 µM)	12 µg/mL (≈ 36.8 µM)	5 µg/mL (≈ 15.3 µM)	17 µg/mL (≈ 52.1 µM)	11 µg/mL (≈ 33.7 µM)	10 µg/mL (≈ 30.6 µM)	31 µg/mL (≈ 95 µM)	10 µg/mL (≈ 30.6 µM)	16 µg/mL (≈ 49 µM)	
CCOc1ccc2[n+](c1)CCc1c-2[nH]c2ccccc12 [Compound 24, 3-ethoxy-6,7-dihydroindolo[2,3-a]quinolizinium]	20 µg/mL	50 µg/mL		89 µg/mL	30 µg/mL		38 µg/mL											64 µg/mL
Fc1ccc(COc2ccc3[n+](c2)CCc2c-3[nH]c3ccccc23)cc1.[O-][Cl+3]([O-])([O-])[O-] [Compound 25]	9 µg/mL	8 µg/mL	34 µg/mL	44 µg/mL	44 µg/mL	30 µg/mL	36 µg/mL	41 µg/mL										24 µg/mL
Brc1ccc(COc2ccc3[n+](c2)CCc2c-3[nH]c3ccccc23)cc1.[Br-] [Compound 26]		6 µg/mL	>100 µg/mL	24 µg/mL	>100 µg/mL	9.5 µg/mL	>100 µg/mL	7.5 µg/mL										12 µg/mL
CCCCOc1ccc2[n+](c1)CCc1c-2[nH]c2ccccc12.[Br-] [Compound 27]		7 µg/mL	6 µg/mL	5 µg/mL	4 µg/mL	7.5 µg/mL	4.7 µg/mL	9 µg/mL										
c1ccc(COc2ccc3c4[nH]c5ccccc5c4cc[n+]3c2)cc1 [Compound 28, 3-benzyloxyindolo[2,3-a]quinolizinium]	2 µg/mL	2 µg/mL	5 µg/mL	1.5 µg/mL	<1 µg/mL	2 µg/mL	1.5 µg/mL	2 µg/mL										4 µg/mL
CCOc1ccc2c3[nH]c4ccccc4c3cc[n+]2c1 [Compound 29, 3-ethoxyindolor-2,3-alquinolizinium]	15 µg/mL	10 µg/mL		8.0 µg/mL	10 µg/mL		5 µg/mL											4 µg/mL
BrCCCOc1ccc2c3[nH]c4ccccc4c3cc[n+]2c1.[O-][Cl+3]([O-])([O-])[O-] [Compound 30]	10 µg/mL	10 µg/mL	6 µg/mL	1.5 µg/mL	6 µg/mL	4 µg/mL	2 µg/mL	7.5 µg/mL										6 µg/mL
CCCCOc1ccc2c3[nH]c4ccccc4c3cc[n+]2c1.[Br-] [Compound 33]		1.6 µg/mL	3 µg/mL	2.4 µg/mL	1.4 µg/mL	2 µg/mL	<1 µg/mL	5 µg/mL										
